The values below come from patent publication US6004938A, “Inositolglycans having insulin-like action” (Hoescht Aktiengesellschaft, priority 1996, dated 1999).

The subject of test [1] is rat fat cells. Kind of test: Glucose transport in isolated rat fat cells (insulin-like activity). Conditions: rat fat cells, 2-[3H]-deoxyglucose; for Emax: 0.25 h, read-out: Glucose transport % Insmax; for Emax / Glucose transport % Insmax: part of maximum stimulation factor of insulin (set at 100%), 15 min, 37° C.; for EC50: concentration at 50% of the maximum stimulation achieved by the respective compound, read-out: Glucose transport EC50. The class given is cell-based, rat (Wistar). The protocol:
(§1) This example provides exemplary methods for determining insulin-like activity. The biological activity of the compounds of the formula I according to the invention is determined with the aid of isolated fat cells from the rat.
(§2) The preparation of fat cells from the rat was carried out as follows: White fatty tissue of the epididymis (Wistar rat, 160-180 g, no food restriction) is digested with collagenase and the resulting isolated fat cells are separated off by means of filtration of undigested tissue and washed by flotation several times using Krebs-Ringer-Henseleit buffer (KRH buffer).
[…] After addition of 15 μl of 2-[^3 H]-deoxyglucose (0.3 mM, 0.2 μCi), the incubation is continued at room temperature. After specified times (0-20 min), 100 μl of the test batch are removed and transferred to a reaction vessel (contents 400 μl), in which 250 μl of dinonyl phthalate have been initially introduced. After centrifugation (15,000×g, 1 min), the cells are separated off from the oily layer of the incubation medium underneath the oily layer by cutting the tube at the level of the oily layer and transferring to a scintillation vessel. After addition of 5 ml of water-soluble scintillation fluid, the radioactivity is determined. This total cell-associated radioactivity is corrected for [^3 H]-deoxyglucose which has passively diffused into the cells and is included in the cell interstices by subtraction of a control value (incubation in the presence of the glucose transport inhibitor cytochalasin B). The initial (stimulated) glucose transport rate is linear up to 15 min. The maximum stimulation factor--this is the ratio of the incubation result with insulin to the incubation result without insulin--is set at 100%.
The terms "%Insmax " and "EC50 " are as defined under A) lipogenesis.

The test system of test [2] is rat fat cells. Kind of test: Lipogenesis in isolated rat fat cells (insulin-like activity). The format is cell-based, rat (Wistar). Conditions: rat fat cells, 90 min, 37° C.; for EC50: concentration at 50% of the maximum stimulation achieved by the respective compound, read-out: Lipogenesis EC50; for Emax / Lipogenesis % Insmax: part of maximum stimulation factor of insulin (set at 100%), D-[3-3H]glucose; for Emax: read-out: Lipogenesis % Insmax. On the procedure: as §1, §2
This test determines the insulin-stimulable conversion of glucose into toluene-soluble products (triglycerides, phospholipids, fatty acids), which promotes glucose transport and triglyceride (glycerol-3-P synthesis, esterification)/phospholipid/fatty acid synthesis including the insulin signal transmission cascade. At a glucose concentration of 2.5 mM in the test, the esterification (and not the glycerol-3-P synthesis including glucose transport) is rate-determining for the stimulation of lipogenesis.
200 μl (3×10^5 cells/ml) of rat fat cells in KRH buffer are incubated at 37° C. for 90 min with 100 μl of D-[3-^3 H] glucose (25 mM, 0.4 μCi) in the presence or absence of insulin (10 ng/ml) or compound of the formula I according to the invention (final volume 1 ml). By addition of a toluene-soluble scintillation cocktail (10 ml), the cells are disrupted and the lipids are separated off from water-soluble products and the incubation medium. After phase separation, the radioactivity incorporated in lipid products is determined directly without removal of the aqueous phase by scintillation measurement ([^3 H]lipid [dpm×10^-3 ]). A control value (incubation under identical conditions but without cells) is subtracted from this radioactivity. The lipogenesis rate is linear up to 120 min. The maximum stimulation factor--this is the ratio of the incubation result with insulin to the incubation results without insulin--is set at 100%. The percentage data under "%Insmax " are parts of the maximum stimulation factor defined in this way. The term EC50 indicates the concentration of the compound of the formula I at which 50% of the maximum stimulation to be achieved by the respective compound of the formula I is to be observed.

Turning to `NC(=O)OC[C@H]1O[C@H](O[C@@H]2[C@@H](OC[C@H]3O[C@H](O[C@@H]4[C@@H](N)[C@H](O[C@H]5[C@H](O)[C@@H](O)[C@H](OP(=O)(O)O)[C@H](O)[C@@H]5O)O[C@H](CO)[C@H]4O)[C@@H](O)[C@@H](O)[C@@H]3O)O[C@H](COC(N)=O)[C@@H](O)[C@@H]2O)[C@@H](O[C@H]2O[C@H](CO)[C@@H](O)[C@H](O)[C@@H]2O)[C@@H](O)[C@@H]1O` [R, H2 N-CO-O-6Manα1(Manα1-2)-2Manα1(6-CO-NH2)-6Manα1-3GluNβ1-6(L)inositol-3-phosphate], in the test with rat fat cells [1], the Emax is 19% and the EC50 amounted to 10 µM. Besides, in the test with rat fat cells [2] (1.5 h), the EC50 is 15 µM and the Emax was 48%.

For `N[C@H]1[C@H](O[C@H]2[C@H](O)[C@@H](O)[C@H](OP(=O)(O)O)[C@H](O)[C@@H]2O)O[C@H](CO)[C@@H](O)[C@@H]1O[C@H]1O[C@H](CO[C@H]2O[C@H](CO[PH](=O)O)[C@@H](O)[C@H](O)[C@@H]2O[C@H]2O[C@H](CO[PH](=O)O)[C@@H](O)[C@H](O)[C@@H]2O[C@H]2O[C@H](CO)[C@@H](O)[C@H](O)[C@@H]2O)[C@@H](O)[C@H](O)[C@@H]1O` [T, HO-PO(H)O-6Manα1(Manα1-2)-2Manα1(6-PO(H)OH)-6Manα1-3GluNβ1-6(L)inositol-3-phosphate], in the test on rat fat cells [1], the Emax was found to be 30% and the EC50 is 10 µM. In the test with rat fat cells [2] (1.5 h), the EC50 was determined as 12 µM and the Emax came to 72%.

With `N[C@H]1[C@H](O[C@H]2[C@H](O)[C@@H](O)[C@H](OP(=O)(O)O)[C@H](O)[C@@H]2O)O[C@H](CO)[C@@H](O)[C@@H]1O[C@H]1O[C@H](CO[C@H]2O[C@H](CO[PH](=O)O)[C@@H](O)[C@H](O)[C@@H]2O[C@H]2O[C@H](CO)[C@@H](O)[C@H](O)[C@@H]2O[C@H]2O[C@H](CO)[C@@H](O)[C@H](O)[C@@H]2O)[C@@H](O)[C@H](O)[C@@H]1O` [U, Manα1-2Manα1-2Manα1(6-PO(H)OH)-6Manα1-3GluNβ1-6(L)inositol-3-phosphate], the Emax was found to be 34% in the test with rat fat cells [1] and 80% in the test on rat fat cells [2] (1.5 h). The EC50 in the test on rat fat cells [1] and in the test with rat fat cells [2] (1.5 h) was 15 µM throughout.

For `N[C@H]1[C@H](O[C@H]2[C@H](O)[C@@H](O)[C@H](OP(=O)(O)O)[C@H](O)[C@@H]2O)O[C@H](CO)[C@@H](O)[C@@H]1O[C@H]1O[C@H](CO[C@H]2O[C@H](COS(=O)(=O)O)[C@@H](O)[C@H](O)[C@@H]2O[C@H]2O[C@H](CO)[C@@H](O)[C@H](O)[C@@H]2O[C@H]2O[C@H](CO)[C@@H](O)[C@H](O)[C@@H]2O)[C@@H](O)[C@H](O)[C@@H]1O` [V, Manα1(Manα1-2)-2Manα1(6-HSO3)-6Manα1-3GluNβ1-6(L)inositol-3-phosphate], in the test on rat fat cells [1], the Emax is 48% and the EC50 came out at 15 µM. Further, in the test on rat fat cells [2] (1.5 h), the EC50 came to 15 µM and the Emax came to 83%.

With `N[C@H]1[C@H](O[C@H]2[C@H](O)[C@@H](O)[C@H](OP(=O)(O)O)[C@H](O)[C@@H]2O)O[C@H](CO)[C@@H](O)[C@@H]1O[C@H]1O[C@H](CO[C@H]2O[C@H](COS(=O)(=O)O)[C@@H](O)[C@H](O)[C@@H]2O[C@H]2O[C@H](COS(=O)(=O)O)[C@@H](O)[C@H](O)[C@@H]2O[C@H]2O[C@H](CO)[C@@H](O)[C@H](O)[C@@H]2O)[C@@H](O)[C@H](O)[C@@H]1O` [W, HO-SO2 -O-6Manα1(Manα1-2)-2-Manα1(6-HSO3)-6Manα1-3GluNβ1-6(L)inositol-3-phosphate], in the test on rat fat cells [1], the Emax was determined as 42% and the concentration for a half-maximal effect (EC50) is 10 µM. Moreover, in the test with rat fat cells [2] (1.5 h), the EC50 amounted to 10 µM and the Emax is 86%.

As for “H2 N-CO-6Manα1(Manα1-2)-2Manα1-6Manα1-4GluNβ1-6(D)-inositol-1,2-(cyclic)-phosphate [K]”, in the test on rat fat cells [1], the EC50 was 15 µM and the “Glucose transport % Insmax” value is given as 23%. In addition, in the test with rat fat cells [2], the half-maximal effective concentration (EC50) is 8 µM and the “Lipogenesis % Insmax” value was determined as 72%.

Regarding “HO-PO(H)O-6-Manα1(Manα1-2)-2-Manα1-6Manα-3GluNβ1-6(L)-inositol-3-phosphate”, in the test with rat fat cells [1], the EC50 is 20 µM and the “Glucose transport % Insmax” value is 18%. In addition, in the test with rat fat cells [2], the EC50 was 20 µM and the “Lipogenesis % Insmax” value came out at 32%.

Regarding “HO-PO(H)O-6Manα1(Manα1-2)-2-Manα1-6-Manα1-4GluN(HSO3)β-1-6(L)-inositol-1,2-(cyclic)-phosphate [J]”, in the test with rat fat cells [1], the EC50 came to 3 µM and the “Glucose transport % Insmax” value amounted to 21%. Moreover, in the test with rat fat cells [2], the EC50 stood at 8 µM and the “Lipogenesis % Insmax” value came out at 63%.

“HO-PO(H)O-6Manα1(Manα1-2)-2Manα1-6Manα1-4GluNα1-6(L)inositol-2-phosphate [F]”: in the test with rat fat cells [1], the EC50 came to 25 µM and the “Glucose transport % Insmax” value worked out at 26%. For the same molecule, in the test with rat fat cells [2], the EC50 turned out to be 15 µM and the “Lipogenesis % Insmax” value turned out to be 53%.

As to “HO-PO(H)O-6Manα1-6-Manα1-6Manα1-6Manα1-3GluNβ1-6(L)inositol-3-phosphate”, in the test on rat fat cells [1], the EC50 was determined as 50 µM and the “Glucose transport % Insmax” value is 14%. Besides, in the test on rat fat cells [2], the EC50 is 20 µM and the “Lipogenesis % Insmax” value turned out to be 18%.

On to “HO-SO2 -6Manα1(Manα1-2)-2Manα1-6Manα1-4GluNβ1-6(D)-inositol-1,2-(cyclic)-phosphate”, for which, in the test with rat fat cells [1], the EC50 amounted to 8 µM and the “Glucose transport % Insmax” value is on record as 36%. In the test on rat fat cells [2], the EC50 was found to be 7 µM and the “Lipogenesis % Insmax” value was determined as 84%.

A word on the EC50: it is the concentration needed to bring the measured effect to its halfway point.
